This note sets out measurements from patent US5543530A, “4-arylisoindole analgesics” (Ortho Pharmaceutical Corporation, priority 1993, dated 1996).

For the experiment, the system named is Acetylcholine-Bromide Induced Abdominal Constriction. The experiment can be described thus: Mouse Acetylcholine Bromide-Induced Abdominal Constriction Assay. Type of experiment: in vivo. As to conditions: for ED50: Mus musculus, 0.5 h, po, 5.5 mg/kg i.p. acetylcholine bromide 30 minutes after drug, read-out: ED50 (dose which would produce 50% analgesia). The text has this:
Mouse Acetylcholine Bromide-Induced Abdominal Constriction Assay
The mouse acetylcholine-induced abdominal constiction assay, as described by Collier et al. in Brit. J. Pharmacol. Chem. Ther., 32:295-310, 1968, with minor modifications was used to assess analgesic potency of the compounds of formula (I). […] The mice were then placed in groups of three into glass bell jars and observed for a ten minute observation period for the occurrence of an abdominal constriction response (defined as a wave of constriction and elongation passing caudally along the abdominal wall, accompanied by a twisting of the trunk and followed by extension of the hind limbs). The percent inhibition of this response to a nociceptive stimulus (equated to % analgesia) was calculated as follows: The % Inhibition of response, i.e., % analgesia is equal to the difference between the No. of control animals response and the No. of drug-treated animals response times 100 divided by the No. of control animals responding.
At least 15 animals were used for control and in each of the drug treated groups. At least three doses were used to determine each dose response curve and ED50 (that dose which would produce 50% analgesia). The ED50 values and their 95% fiducial limits were determined by a computer assisted probit analysis.

What is called ED50 is the dose at which the effect has come halfway, by size or by number of responders. As usually defined, the % Inhibition is the relative decrease from the control value, in per cent. Read a high % Inhibition as strong suppression.

Consider `CN1C[C@@H]2CCC[C@@](O)(c3ccc(F)cc3)[C@@H]2C1` (relative stereo) [Cp-4], for which the ED50 turned out to be 0.76 mg/kg.

As for `O[C@@]1(c2cccc(C(F)(F)F)c2)CCC[C@H]2CN(Cc3ccccc3)C[C@H]21` (relative stereo) [Cp-18], the “% Inhibition” value (@30 mpk/po) stood at 71%.

With `CN1C[C@@H]2CCC[C@@](O)(c3ccccc3)[C@@H]2C1` (relative stereo) [Cp-16], the ED50 turned out to be 3.9 mg/kg.

Turning to `CN1C[C@@H]2CCC[C@@](O)(c3ccccc3)[C@@H]2C1` (single isomer, unassigned) [Cp-15, (+)-4β-Hydroxy-2-Methyl-4-phenyl-3aα,7aα-octahydroisoindole], the “% Inhibition” value (@10 mpk/po) was found to be 90%.

For the molecule `COc1cccc([C@]2(O)CCC[C@H]3CN(Cc4ccccc4)C[C@H]32)c1` (relative stereo) [Cp-13], the “% Inhibition” value (@30 mpk/sc) was 75%.

Consider `CN1C[C@@H]2CCC[C@@](O)(c3cccc(F)c3)[C@@H]2C1` (relative stereo) [Cp-7], for which the ED50 was 5.38 mg/kg.

For `CN1C[C@@H]2CCC[C@@](O)(c3ccc(Cl)cc3Cl)[C@@H]2C1` (relative stereo) [Cp-11], the ED50 came to 1.36 mg/kg.

In the case of `O[C@@]1(c2cccc(C(F)(F)F)c2)CCC[C@H]2CNC[C@H]21` (relative stereo) [Cp-19], the ED50 came to 4.2 mg/kg.

Regarding `CN1C[C@@H]2CCC[C@@](O)(c3cccnc3)[C@@H]2C1` (relative stereo) [Cp-6], the ED50 was 30.4 mg/kg.

On to `CN1C[C@@H]2CCC[C@@](O)(c3cccc4ccccc34)[C@@H]2C1` (relative stereo) [Cp-5], for which the ED50 is 16.6 mg/kg.

`CN1C[C@@H]2CCC[C@@](O)(c3cccc(C(F)(F)F)c3)[C@@H]2C1` (relative stereo) [Cp-8]: the ED50 amounted to 2.08 mg/kg.

For the molecule `CN1C[C@@H]2CCC[C@@](O)(c3cccs3)[C@@H]2C1` (relative stereo) [Cp-1], the ED50 came out at 7.3 mg/kg.

As for `CN1C[C@@H]2CCC[C@@](O)(c3ccccc3)[C@@H]2C1` (single isomer, unassigned) [Cp-12, (-)-4β-Hydroxy-2-Methyl-4-Phenyl-3aα,7aα-Octahydroisoindole], the “% Inhibition” value (@10 mpk/ko (so in the source)) was 90%.

For `CN1C[C@@H]2CCC[C@@](O)(c3ccccn3)[C@@H]2C1` (relative stereo) [Cp-9], the ED50 was determined as 15.4 mg/kg.

With `COc1ccc([C@]2(O)CCC[C@H]3CN(C)C[C@H]32)cc1` (relative stereo) [Cp-3], the “% Inhibition” value (@30 mpk/po) is on record as 46-93%.

In the case of `O[C@@]1(c2ccc(C(F)(F)F)cc2)CCC[C@H]2CN(Cc3ccccc3)C[C@H]21` (relative stereo) [Cp-20], the ED50 came out at 10.7 mg/kg.
